In ChEMBL document CHEMBL5512642, “Novel triterpenoid pyrones, phthalimides and phthalates are selectively cytotoxic in CCRF-CEM cancer cells - Synthesis, potency, and mitochondrial mechanism of action” (Eur J Med Chem, 2024):

How the values were obtained:
CCRF-CEM = assay: Cytotoxicity against human CCRF-CEM cells assessed as reduction in cell viability incubated for 72 hrs by MTS assay; assay type: functional, cell-based
CEM-DNR = assay: Cytotoxicity against human CEM-DNR cells assessed as reduction in cell viability incubated for 72 hrs by MTS assay; assay type: functional, cell-based
K562 = assay: Cytotoxicity against human K562 cells assessed as reduction in cell viability incubated for 72 hrs by MTS assay; assay type: functional, cell-based; details: K562, 72 h
[1] = Cytotoxicity against human K562-Tax cells assessed as reduction in cell viability incubated for 72 hrs by MTS assay; assay type: functional, cell-based
A549 = assay: Cytotoxicity against human A549 cells assessed as reduction in cell viability incubated for 72 hrs by MTS assay; assay type: functional, cell-based; details: A549, 72 h
HCT-116 = assay: Cytotoxicity against human HCT-116 cells assessed as reduction in cell viability incubated for 72 hrs by MTS assay; assay type: functional, cell-based; details: HCT-116, 72 h
HCT 116 TP53(-/-) = assay: Cytotoxicity against human HCT116-p53-null cells assessed as reduction in cell viability incubated for 72 hrs by MTS assay; assay type: functional, cell-based
U2OS = assay: Cytotoxicity against human U2OS cells assessed as reduction in cell viability incubated for 72 hrs by MTS assay; assay type: functional, cell-based
[2] = Cytotoxicity against human BJ cells assessed as reduction in cell viability incubated for 72 hrs by MTS assay; assay type: toxicity, cell-based
[3] = Cytotoxicity against human MRC5 cells assessed as reduction in cell viability incubated for 72 hrs by MTS assay; assay type: toxicity, cell-based

## C=C(C)[C@@H]1CC[C@]2(C(=O)O)CC[C@]3(C)[C@H](CC[C@@H]4[C@@]5(C)Cc6c(C(F)(F)F)cc7c(c6C(C)(C)[C@@H]5CC[C@]43C)C(=O)N(c3ccccc3)C7=O)[C@@H]12
CCRF-CEM
  IC50: > 50 µM
CEM-DNR
  IC50: > 50 µM
K562
  IC50: > 50 µM
[1]
  IC50: > 50 µM
A549
  IC50: > 50 µM
HCT-116
  IC50: > 50 µM
HCT 116 TP53(-/-)
  IC50: > 50 µM
U2OS
  IC50: > 50 µM
[2]
  IC50 at 72 h: > 50 µM
[3]
  IC50 at 72 h: > 50 µM

## COC(=O)c1cc(C(F)(F)F)c2c(c1C(=O)OC)C(C)(C)[C@@H]1CC[C@]3(C)[C@H](CC=C4[C@@H]5[C@@H](C)[C@H](C)CC[C@]5(C(=O)O)CC[C@]43C)[C@@]1(C)C2
CCRF-CEM
  IC50: 5.1 µM
CEM-DNR
  IC50: > 50 µM
K562
  IC50: 28 µM
[1]
  IC50: > 50 µM
A549
  IC50: 17 µM
HCT-116
  IC50: 38 µM
HCT 116 TP53(-/-)
  IC50: 26 µM
U2OS
  IC50: 24 µM
[2]
  IC50 at 72 h: > 50 µM
[3]
  IC50 at 72 h: > 50 µM

## C[C@H]1[C@H](C)CC[C@]2(C(=O)O)CC[C@]3(C)C(=CC[C@@H]4[C@@]5(C)Cc6c(C(F)(F)F)cc(=O)oc6C(C)(C)[C@@H]5CC[C@]43C)[C@H]12
CCRF-CEM
  IC50: 6.3 µM
CEM-DNR
  IC50: 19.5 µM
K562
  IC50: 23 µM
[1]
  IC50: 21 µM
A549
  IC50: 17 µM
HCT-116
  IC50: 25 µM
HCT 116 TP53(-/-)
  IC50: 27 µM
U2OS
  IC50: 23 µM
[2]
  IC50 at 72 h: > 50 µM
[3]
  IC50 at 72 h: > 50 µM

## C[C@H]1[C@H](C)CC[C@]2(C(=O)O)CC[C@]3(C)C(=CC[C@@H]4[C@@]5(C)CC(C(=O)C(F)(F)F)C(=O)C(C)(C)[C@@H]5CC[C@]43C)[C@H]12 (some centres undefined)
CCRF-CEM
  IC50: 8.3 µM
K562
  IC50: 23 µM
A549
  IC50: 23 µM
HCT-116
  IC50: 35 µM
HCT 116 TP53(-/-)
  IC50: 43 µM
U2OS
  IC50: > 50 µM
[2]
  IC50 at 72 h: > 50 µM
[3]
  IC50 at 72 h: > 50 µM

## COC(=O)c1cc(C(F)(F)F)c2c(c1C(=O)OC)C(C)(C)[C@@H]1CC[C@]3(C)[C@H](CC[C@@H]4[C@H]5[C@H](C(C)C)CC[C@]5(C(=O)O)CC[C@]43C)[C@@]1(C)C2
CCRF-CEM
  IC50: 5.3 µM
CEM-DNR
  IC50: > 50 µM
K562
  IC50: > 50 µM
[1]
  IC50: > 50 µM
A549
  IC50: > 50 µM
HCT-116
  IC50: > 50 µM
HCT 116 TP53(-/-)
  IC50: > 50 µM
U2OS
  IC50: 11 µM
[2]
  IC50 at 72 h: > 50 µM
[3]
  IC50 at 72 h: > 50 µM

## CC(C)[C@@H]1CC[C@]2(C(=O)O)CC[C@]3(C)[C@H](CC[C@@H]4[C@@]5(C)CC(C(=O)C(F)(F)F)C(=O)C(C)(C)[C@@H]5CC[C@]43C)[C@@H]12 (some centres undefined)
CCRF-CEM
  IC50: 8.6 µM
K562
  IC50: 29 µM
A549
  IC50: 11 µM
HCT-116
  IC50: 23 µM
HCT 116 TP53(-/-)
  IC50: 26 µM
U2OS
  IC50: 25 µM
[2]
  IC50 at 72 h: 43 µM
[3]
  IC50 at 72 h: 46 µM

## C=C(C)[C@@H]1CC[C@]2(C(=O)O)CC[C@]3(C)[C@H](CC[C@@H]4[C@@]5(C)CC(C(=O)C(F)(F)F)C(=O)C(C)(C)[C@@H]5CC[C@]43C)[C@@H]12 (some centres undefined)
CCRF-CEM
  IC50: 7.3 µM
K562
  IC50: 13 µM
A549
  IC50: 12 µM
HCT-116
  IC50: 24 µM
HCT 116 TP53(-/-)
  IC50: 30 µM
U2OS
  IC50: 30 µM
[2]
  IC50 at 72 h: > 50 µM
[3]
  IC50 at 72 h: > 50 µM

## C[C@H]1[C@H](C)CC[C@]2(C(=O)O)CC[C@]3(C)C(=CC[C@@H]4[C@@]5(C)Cc6c(C(F)(F)F)cc7c(c6C(C)(C)[C@@H]5CC[C@]43C)C(=O)N(c3ccccc3)C7=O)[C@H]12
CCRF-CEM
  IC50: > 50 µM
CEM-DNR
  IC50: > 50 µM
K562
  IC50: > 50 µM
[1]
  IC50: > 50 µM
A549
  IC50: > 50 µM
HCT-116
  IC50: > 50 µM
HCT 116 TP53(-/-)
  IC50: > 50 µM
U2OS
  IC50: > 50 µM
[2]
  IC50 at 72 h: > 50 µM
[3]
  IC50 at 72 h: > 50 µM

## CC(C)[C@@H]1CC[C@]2(C(=O)O)CC[C@]3(C)[C@H](CC[C@@H]4[C@@]5(C)Cc6c(C(F)(F)F)cc7c(c6C(C)(C)[C@@H]5CC[C@]43C)C(=O)N(c3ccccc3)C7=O)[C@@H]12
CCRF-CEM
  IC50: > 50 µM
CEM-DNR
  IC50: > 50 µM
K562
  IC50: > 50 µM
[1]
  IC50: > 50 µM
A549
  IC50: > 50 µM
HCT-116
  IC50: > 50 µM
HCT 116 TP53(-/-)
  IC50: > 50 µM
U2OS
  IC50: > 50 µM
[2]
  IC50 at 72 h: > 50 µM
[3]
  IC50 at 72 h: > 50 µM
